Assay results: the supplement of paper PMC12463676, “Small-molecule dissolution of stress granules by redox modulation benefits ALS models” (Nature Chemical Biology, 2025)

Tests used:
lipoamide = compound: NC(=O)CCCCC1CCSS1 [lipoamide]; experiment: thermal stability z-score vs DMSO; higher = more thermally stabilized by treatment; conditions: HeLa, lipoamide concentration 100 µM
Procedure: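 Cellular thermal proteome profiling in HeLa cells. Cells were treated with 100 µM lipoamide for 1 h, with or without 1 mM arsenate for a further 1 h, then heated to ten temperatures (37-66.3 °C), and soluble protein was quantified by TMT mass spectrometry relative to 0.1% DMSO controls. The thermal stability score (sum of log2 fold changes minus the abundance score) was transformed to a z-score; mean of n = 3 experiments.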

potassium arsenate = compound: O=[As]([O-])(O)O.[K+] [potassium arsenate]; experiment: as above; conditions: HeLa; arsenate concentration 1 mM
Procedure: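 Cellular thermal proteome profiling in HeLa cells treated with 1 mM arsenate for 1 h (DMSO pretreatment), heated to ten temperatures (37-66.3 °C). Soluble protein was quantified by TMT mass spectrometry relative to DMSO controls; the thermal stability score was transformed to a z-score; mean of n = 3 experiments.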

[1] = arsenate co-treatment: 1 mM arsenate 1 h
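Note: each temperature applied for 3 min, abundance score taken as mean log2 fold change at the two lowest temperatures, z-score obtained by mean subtraction and division by SD.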

Chain of UniProt Q96L50 (Q96L50 whole entry): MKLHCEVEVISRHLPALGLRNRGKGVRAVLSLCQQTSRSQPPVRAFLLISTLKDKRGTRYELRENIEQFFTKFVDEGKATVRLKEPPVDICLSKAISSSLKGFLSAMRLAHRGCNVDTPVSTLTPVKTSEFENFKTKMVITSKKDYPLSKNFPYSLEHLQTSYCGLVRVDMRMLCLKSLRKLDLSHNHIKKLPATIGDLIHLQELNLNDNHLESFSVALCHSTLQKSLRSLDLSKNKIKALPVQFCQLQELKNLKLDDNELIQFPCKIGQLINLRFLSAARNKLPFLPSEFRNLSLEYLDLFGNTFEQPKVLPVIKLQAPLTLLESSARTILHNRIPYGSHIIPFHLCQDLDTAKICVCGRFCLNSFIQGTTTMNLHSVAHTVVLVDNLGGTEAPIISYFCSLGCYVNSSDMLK
Chain of UniProt Q9NNW5 (Q9NNW5 whole entry): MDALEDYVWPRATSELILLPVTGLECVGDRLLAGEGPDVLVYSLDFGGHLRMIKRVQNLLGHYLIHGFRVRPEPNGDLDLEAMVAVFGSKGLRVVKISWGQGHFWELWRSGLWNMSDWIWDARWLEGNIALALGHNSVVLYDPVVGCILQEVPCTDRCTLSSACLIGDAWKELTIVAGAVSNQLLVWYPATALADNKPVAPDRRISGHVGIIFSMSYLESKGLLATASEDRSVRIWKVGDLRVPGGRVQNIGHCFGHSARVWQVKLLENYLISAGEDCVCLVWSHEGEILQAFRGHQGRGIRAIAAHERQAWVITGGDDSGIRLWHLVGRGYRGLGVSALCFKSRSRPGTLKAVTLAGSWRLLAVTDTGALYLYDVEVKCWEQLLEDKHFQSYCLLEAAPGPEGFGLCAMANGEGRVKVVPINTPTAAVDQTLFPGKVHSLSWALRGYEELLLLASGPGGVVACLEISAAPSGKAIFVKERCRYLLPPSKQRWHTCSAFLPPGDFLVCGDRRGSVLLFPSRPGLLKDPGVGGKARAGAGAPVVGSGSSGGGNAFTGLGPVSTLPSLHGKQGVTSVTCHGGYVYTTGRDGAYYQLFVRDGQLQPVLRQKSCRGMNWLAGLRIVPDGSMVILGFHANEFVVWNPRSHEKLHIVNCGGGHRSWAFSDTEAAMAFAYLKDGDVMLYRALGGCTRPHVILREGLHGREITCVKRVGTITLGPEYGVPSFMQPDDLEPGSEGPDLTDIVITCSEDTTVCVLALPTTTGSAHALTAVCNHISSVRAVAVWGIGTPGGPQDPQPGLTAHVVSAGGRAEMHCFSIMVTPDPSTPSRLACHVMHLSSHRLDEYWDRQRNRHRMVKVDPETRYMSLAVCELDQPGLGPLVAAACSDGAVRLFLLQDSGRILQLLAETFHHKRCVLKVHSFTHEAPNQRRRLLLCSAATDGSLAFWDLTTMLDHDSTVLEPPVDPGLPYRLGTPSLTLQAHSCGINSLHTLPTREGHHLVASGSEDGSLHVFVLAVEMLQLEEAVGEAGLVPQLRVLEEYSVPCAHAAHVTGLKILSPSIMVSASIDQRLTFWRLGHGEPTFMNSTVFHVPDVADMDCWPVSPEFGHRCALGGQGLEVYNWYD
Chain of UniProt Q969T9 (Q969T9 whole entry): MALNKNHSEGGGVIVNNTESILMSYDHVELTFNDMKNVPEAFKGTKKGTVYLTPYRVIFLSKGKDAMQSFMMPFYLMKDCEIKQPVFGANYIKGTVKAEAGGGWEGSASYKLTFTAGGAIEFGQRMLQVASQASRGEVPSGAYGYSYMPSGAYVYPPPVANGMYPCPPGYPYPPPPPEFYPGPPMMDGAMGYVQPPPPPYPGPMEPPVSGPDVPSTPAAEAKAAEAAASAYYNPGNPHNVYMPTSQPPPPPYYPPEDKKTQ
Chain of UniProt Q53SF7 (Q53SF7 whole entry): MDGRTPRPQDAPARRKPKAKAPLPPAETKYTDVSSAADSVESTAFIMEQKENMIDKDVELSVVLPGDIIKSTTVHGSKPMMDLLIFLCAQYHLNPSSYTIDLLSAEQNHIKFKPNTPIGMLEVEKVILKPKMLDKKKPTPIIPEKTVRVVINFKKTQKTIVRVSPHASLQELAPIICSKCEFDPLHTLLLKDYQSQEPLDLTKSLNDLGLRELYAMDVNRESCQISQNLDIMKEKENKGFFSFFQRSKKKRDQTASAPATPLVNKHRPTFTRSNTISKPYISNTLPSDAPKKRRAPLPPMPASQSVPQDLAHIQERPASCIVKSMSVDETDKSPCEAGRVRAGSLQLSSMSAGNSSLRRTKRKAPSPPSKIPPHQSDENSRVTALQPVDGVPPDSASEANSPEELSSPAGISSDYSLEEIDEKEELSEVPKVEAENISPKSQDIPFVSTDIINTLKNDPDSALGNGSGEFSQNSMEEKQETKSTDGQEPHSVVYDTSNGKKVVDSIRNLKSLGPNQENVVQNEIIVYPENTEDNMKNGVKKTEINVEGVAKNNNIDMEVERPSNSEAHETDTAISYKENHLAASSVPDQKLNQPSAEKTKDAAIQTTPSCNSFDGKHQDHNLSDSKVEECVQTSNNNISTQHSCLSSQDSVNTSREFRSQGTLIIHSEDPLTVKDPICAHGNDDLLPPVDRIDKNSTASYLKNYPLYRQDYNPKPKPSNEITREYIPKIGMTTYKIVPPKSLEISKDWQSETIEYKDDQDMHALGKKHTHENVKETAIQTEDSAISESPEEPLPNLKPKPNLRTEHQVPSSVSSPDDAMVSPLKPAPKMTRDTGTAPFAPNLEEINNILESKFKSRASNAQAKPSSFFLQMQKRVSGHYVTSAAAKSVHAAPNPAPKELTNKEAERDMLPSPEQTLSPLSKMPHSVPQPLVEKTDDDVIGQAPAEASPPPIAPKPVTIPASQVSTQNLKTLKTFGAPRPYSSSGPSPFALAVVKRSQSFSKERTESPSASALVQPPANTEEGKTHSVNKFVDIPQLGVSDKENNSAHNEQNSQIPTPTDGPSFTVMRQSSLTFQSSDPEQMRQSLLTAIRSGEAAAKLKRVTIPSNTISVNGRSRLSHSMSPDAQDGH
Chain of UniProt Q9UMX0 (Q9UMX0 whole entry): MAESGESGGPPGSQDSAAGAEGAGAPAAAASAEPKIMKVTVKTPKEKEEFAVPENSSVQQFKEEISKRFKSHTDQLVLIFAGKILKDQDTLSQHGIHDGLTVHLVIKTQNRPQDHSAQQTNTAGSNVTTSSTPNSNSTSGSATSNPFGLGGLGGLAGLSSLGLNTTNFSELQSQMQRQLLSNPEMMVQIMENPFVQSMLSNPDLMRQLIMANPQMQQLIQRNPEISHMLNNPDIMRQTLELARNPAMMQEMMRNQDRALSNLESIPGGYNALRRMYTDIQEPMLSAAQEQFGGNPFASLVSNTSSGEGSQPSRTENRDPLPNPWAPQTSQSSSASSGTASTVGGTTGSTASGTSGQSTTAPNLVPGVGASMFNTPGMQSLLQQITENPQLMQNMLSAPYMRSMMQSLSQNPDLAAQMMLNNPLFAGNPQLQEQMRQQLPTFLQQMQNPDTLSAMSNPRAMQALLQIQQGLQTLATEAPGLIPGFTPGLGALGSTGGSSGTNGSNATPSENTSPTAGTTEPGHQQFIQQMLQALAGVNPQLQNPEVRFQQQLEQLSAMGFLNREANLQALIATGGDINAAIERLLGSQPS
Chain of UniProt Q12834 (Q12834 whole entry): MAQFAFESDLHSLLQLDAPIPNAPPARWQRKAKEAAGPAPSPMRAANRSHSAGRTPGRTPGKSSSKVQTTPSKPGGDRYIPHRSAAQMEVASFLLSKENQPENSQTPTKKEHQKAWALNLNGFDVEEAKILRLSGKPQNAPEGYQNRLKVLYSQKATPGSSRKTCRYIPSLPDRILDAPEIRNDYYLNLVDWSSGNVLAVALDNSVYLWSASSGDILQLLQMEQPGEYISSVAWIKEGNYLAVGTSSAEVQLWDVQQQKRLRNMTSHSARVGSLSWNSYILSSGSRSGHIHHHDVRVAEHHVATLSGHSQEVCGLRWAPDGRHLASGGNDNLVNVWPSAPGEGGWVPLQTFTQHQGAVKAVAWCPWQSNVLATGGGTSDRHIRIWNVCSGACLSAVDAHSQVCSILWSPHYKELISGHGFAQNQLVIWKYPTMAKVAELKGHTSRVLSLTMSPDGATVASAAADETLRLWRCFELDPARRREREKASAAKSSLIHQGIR
Chain of UniProt Q9H7B4 (Q9H7B4 whole entry): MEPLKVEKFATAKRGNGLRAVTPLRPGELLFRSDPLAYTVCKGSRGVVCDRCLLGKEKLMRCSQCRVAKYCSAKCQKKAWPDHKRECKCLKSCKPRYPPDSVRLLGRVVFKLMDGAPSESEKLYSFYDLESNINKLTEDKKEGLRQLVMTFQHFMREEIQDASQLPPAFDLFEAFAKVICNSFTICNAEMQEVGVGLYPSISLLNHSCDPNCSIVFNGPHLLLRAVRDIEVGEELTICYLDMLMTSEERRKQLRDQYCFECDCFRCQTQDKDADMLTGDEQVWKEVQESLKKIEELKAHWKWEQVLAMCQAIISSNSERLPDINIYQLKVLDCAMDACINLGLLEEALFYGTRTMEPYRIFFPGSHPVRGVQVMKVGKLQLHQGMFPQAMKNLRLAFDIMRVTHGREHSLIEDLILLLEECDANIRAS
Chain of UniProt Q9BXW7 (Q9BXW7 whole entry): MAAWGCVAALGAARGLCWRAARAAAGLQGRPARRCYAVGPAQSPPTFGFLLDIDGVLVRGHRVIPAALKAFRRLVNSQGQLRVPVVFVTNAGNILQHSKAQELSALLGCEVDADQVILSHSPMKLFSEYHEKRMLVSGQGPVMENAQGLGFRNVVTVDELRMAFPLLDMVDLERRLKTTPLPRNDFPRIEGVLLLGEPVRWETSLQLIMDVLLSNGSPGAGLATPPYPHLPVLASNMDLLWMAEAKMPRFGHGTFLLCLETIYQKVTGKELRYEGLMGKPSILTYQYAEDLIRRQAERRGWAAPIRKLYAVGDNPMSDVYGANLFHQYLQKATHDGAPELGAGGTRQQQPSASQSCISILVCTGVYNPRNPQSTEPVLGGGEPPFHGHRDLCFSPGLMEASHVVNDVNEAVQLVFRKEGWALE
Chain of UniProt Q9Y333 (Q9Y333 whole entry): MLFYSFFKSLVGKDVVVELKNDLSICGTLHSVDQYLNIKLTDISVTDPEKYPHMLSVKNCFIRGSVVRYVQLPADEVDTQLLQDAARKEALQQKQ

Target	thermal stability z-score (lipoamide; [1])	thermal stability z-score (lipoamide; arsenate co-treatment: none)	thermal stability z-score (potassium arsenate)
CECR5 (UniProt Q9BXW7)	-0.169	0.0959	0.99
SARAF (UniProt Q96BY9)	-0.355	-0.0205	0.00539
KIAA1522 (UniProt Q9P206)	-0.388	-0.0277	0.286
CCDC102A (UniProt Q96A19)	-0.156	-0.283	-0.327
CEP85 (UniProt Q6P2H3)	-0.00805	0.112	-0.118
CUL2 (UniProt Q13617)	0.23	0.0777	-0.256
NAB2 (UniProt Q15742)	-0.402	-2.02	1.18
CAPZA2 (UniProt P47755)	-0.00372	0.906	0.697
TNPO3 (UniProt Q9Y5L0)	-0.654	-0.367	-0.107
UBE2O (UniProt Q9C0C9)	0.0608	0.277	0.509
PPP6R3 (UniProt Q5H9R7)	1.14	0.331	0.262
TRAPPC12 (UniProt Q8WVT3)	-0.757	-1.04	0.0727
WBP2 (UniProt Q969T9)	0.689	0.465	-0.0559
MAP1LC3B2|MAP1LC3B	0.0751	0.888	0.485
UQCR10 (UniProt Q9UDW1)	-0.399	0.0606	0.553
ASUN (UniProt Q9NVM9)	0.368	0.404	0.906
AES (UniProt Q08117)	0.656	0.111	0.378
ATP13A3 (UniProt Q9H7F0)	-0.563	0.206	0.165
LSM2 (UniProt Q9Y333)	0.00908	0.0523	-0.136
C2ORF49 (UniProt Q9BVC5)	0.426	0.229	0.0813
PARP9 (UniProt Q8IXQ6)	-0.239	-0.1	-0.0858
KCTD15 (UniProt Q96SI1)	-0.377	-0.174	-0.89
OXSR1 (UniProt O95747)	0.903	0.68	-0.408
FNBP1L (UniProt Q5T0N5)	-0.051	0.0394	-0.284
LRR1 (UniProt Q96L50)	0.148	0.192	-0.256
COBLL1 (UniProt Q53SF7)	0.248	0.43	-0.608
DPF2 (UniProt Q92785)	2.86	2.98	-5.05
RPL38 (UniProt P63173)	0.982	0.439	-0.704

Target	thermal stability z-score (lipoamide; [1])	thermal stability z-score (lipoamide; arsenate co-treatment: none)	thermal stability z-score (potassium arsenate)
SMYD3 (UniProt Q9H7B4)	-0.135	-0.101	-0.25
C16ORF58 (UniProt Q96GQ5)	-0.446	-0.183	-0.192
VARS (UniProt P26640)	0.0159	-0.0112	0.373
ATP2B1 (UniProt P20020)	0.446	0.697	-0.146
USP24 (UniProt Q9UPU5)	-0.197	-0.413	-0.117
NCL (UniProt P19338)	0.724	0.77	-0.611
SKP1 (UniProt P63208)	0.337	0.557	-0.000141
DCBLD2 (UniProt Q96PD2)	0.0564	0.109	-0.505
HAT1 (UniProt O14929)	0.352	0.375	0.265
ZNFX1 (UniProt Q9P2E3)	0.113	1.85	2.01
NUDT2 (UniProt P50583)	-0.303	-0.0026	-0.0285
WDR6 (UniProt Q9NNW5)	-0.00677	0.325	0.0479
GRSF1 (UniProt Q12849)	-0.892	-0.354	0.26
FAAP100 (UniProt Q0VG06)	0.0838	-0.0268	-0.167
RASA2 (UniProt Q15283)	-0.0591	-0.273	-0.334
CNBP (UniProt P62633)	0.317	0.142	-0.088
NCOA2 (UniProt Q15596)	-0.239	-0.0592	-0.284
OGT (UniProt O15294)	-0.039	-0.08	0.254
SHKBP1 (UniProt Q8TBC3)	0.0505	0.242	-0.372
MRPL21 (UniProt Q7Z2W9)	-0.754	-0.591	0.0405
ERCC4 (UniProt Q92889)	-0.252	0.00197	-0.123
KYAT3 (UniProt Q6YP21)	-0.0731	0.185	-0.182
TERF2 (UniProt Q15554)	-0.0516	-0.042	0.1
AFTPH (UniProt Q6ULP2)	-0.18	0.15	0.102
CDC20 (UniProt Q12834)	-0.124	-0.245	-1.51
TDRD3 (UniProt Q9H7E2)	-0.448	0.0394	-0.796
UBQLN1 (UniProt Q9UMX0)	2.04	2.04	0.778
